US10874743B2, “IRAK degraders and uses thereof” (Kymera Therapeutics, Inc., priority 2017, dated 2020)

Biological target: T1, IRAK4 (Homo sapiens, UniProt Q9NWZ3)
T1 sequence (Q9NWZ3 1-460): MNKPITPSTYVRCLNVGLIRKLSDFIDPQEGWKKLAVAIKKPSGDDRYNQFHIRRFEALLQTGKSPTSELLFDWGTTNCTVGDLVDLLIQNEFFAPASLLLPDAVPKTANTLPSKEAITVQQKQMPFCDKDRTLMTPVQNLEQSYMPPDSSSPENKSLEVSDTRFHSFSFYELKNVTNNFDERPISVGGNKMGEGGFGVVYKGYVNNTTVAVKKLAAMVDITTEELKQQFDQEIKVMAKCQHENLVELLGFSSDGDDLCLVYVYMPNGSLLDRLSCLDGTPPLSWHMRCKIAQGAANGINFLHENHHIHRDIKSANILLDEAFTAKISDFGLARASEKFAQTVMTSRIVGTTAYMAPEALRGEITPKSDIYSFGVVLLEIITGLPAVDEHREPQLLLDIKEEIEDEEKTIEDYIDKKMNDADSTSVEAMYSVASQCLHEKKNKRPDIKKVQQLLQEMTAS
Experiment: PBMC degradation assay (western blot, % IRAK4 degraded after 4 hours)
Assay type: cell-based
Conditions: human PBMCs
Description: Protocol summary of PBMC degradation studies from compound treatment through quantitation.
PBMC culture medium: Human peripheral blood mononuclear cells (PBMCs): RPMI+10% FBS (Heat-inactivated)+1% P/S.
Cells were cultured at a minimum of 2.5×10^6 c/mL. • PBMCs were incubated @ 37° C./5% CO2 and allowed to rest overnight. • Following overnight recovery, a cell count/viability assessment by trypan blue exclusion was performed. Cells densities were adjusted back to 2.5×10^6 c/mL (proceed with plating only if viability >80%). • In a 6 well plate, 2.0 mL of cells were added to each well for a minimum of 5×10^6 CT per treatment condition. Compounds dilutions were prepared from 20 mM stock and were added at a final 1000× dilution (0.1% DMSO concentration). • At the end of treatment, cells were harvested and spun @ 1800 rpm for 5 min. 1×PBS wash and spun again @ 1800 rpm for 5 min. Cell pellets were frozen and stored at −80° C. until further processing. • Lysates were generated by resuspending in lysis buffer. Protein quantification was performed with a BCA kit. • 20 μg of protein were loaded per lane and run on a 26-well 4-12% Bis-Tris SDS-page gel. • Transfers were performed on PVDF membranes using the BioRad Mixed MW turbo program for 7 min. • Membranes were blocked for one hour on a rocker at room temperature. • Primary antibodies were incubated overnight at 4° C. on a rocker. • Membranes were washed 3×TBST, 5 min each. • Secondaries were added and incubated for one hour on a rocker at room temperature. • Membranes were washed 3×TBST, 5 min each and rinsed well with deionized H2O. Membranes were scanned using the Licor Odessey CLx and bands were quantified using Image Studio Lite Version 5.2 software.
PBMC results at 4 hours. The letter codes indicate the percentage of IRAK4 degraded after 4 hours: A (>50% degradation), B (>20-50% degradation) and C (<20% degradation)

Row | SMILES | PBMC % IRAK4 Degradation
1 | NC(=O)c1nn(-c2ccc(C(=O)NCCc3cn(CCCNc4cccc5c4C(=O)N(C4CCC(=O)NC4=O)C5=O)nn3)cc2)cc1NC(=O)c1coc(-c2ccnc(NCC(F)(F)F)c2)n1 (stereo not drawn) [I-181, N-[3-carbamoyl-1-[4-[2-[1-[3-[[2-(2,6-dioxo-3-piperidyl)-1,3-dioxo-isoindolin-4-yl]amino]propyl]triazol-4-yl]ethylcarbamoyl]phenyl]pyrazol-4-yl]-2-[2-(2,2,2-trifluoroethylamino)-4-pyridyl]oxazole-4-carboxamide] | B (>20-50% degradation)
2 | NC(=O)c1nn(C2CCN(C(=O)COCCOCCOCCOCCNc3cccc4c3C(=O)N(C3CCC(=O)NC3=O)C4=O)CC2)cc1NC(=O)c1coc(-c2ccnc(NCC(F)(F)F)c2)n1 (stereo not drawn) [I-155] | C (<20% degradation)
3 | NC(=O)c1nn(C2CCN(C(=O)COCCOCCOCCNc3cccc4c3C(=O)N(C3CCC(=O)NC3=O)C4=O)CC2)cc1NC(=O)c1coc(-c2ccnc(NCC(F)(F)F)c2)n1 (stereo not drawn) [I-152, N-[3-carbamoyl-1-[1-[2-[2-[2-[2-[[2-(2,6-dioxo-3-piperidyl)-1,3-dioxo-isoindolin-4-yl]amino]ethoxy]ethoxy]ethoxy]acetyl]-4-piperidyl]pyrazol-4-yl]-2-[2-(2,2,2-trifluoroethylamino)-4-pyridyl]oxazole-4-carboxamide] | C (<20% degradation)
4 | NC(=O)c1nn(-c2ccc(C(=O)NCCCNC(=O)COc3cccc4c3C(=O)N(C3CCC(=O)NC3=O)C4=O)cc2)cc1NC(=O)c1coc(-c2ccnc(NCC(F)(F)F)c2)n1 (stereo not drawn) [I-112] | A (>50% degradation)
5 | O=C1CCC(N2C(=O)c3cccc(NCCNCCCCCNC(=O)c4ccc(-n5cc(NC(=O)c6coc(-c7ccnc(NCC8CC8)c7)n6)c(C(F)(F)F)n5)cc4)c3C2=O)C(=O)N1 (stereo not drawn) [I-150] | A (>50% degradation)
6 | CN(CCOCCOCCNc1cccc2c1C(=O)N(C1CCC(=O)NC1=O)C2=O)C(=O)c1ccc(-n2cc(NC(=O)c3coc(-c4ccnc(NCC(F)(F)F)c4)n3)c(C(N)=O)n2)cc1 (stereo not drawn) [I-159, N-[3-carbamoyl-1-[4-[2-[2-[2-[[2-(2,6-dioxo-3-piperidyl)-1,3-dioxo-isoindolin-4-yl]amino]ethoxy]ethoxy]ethyl-methyl-carbamoyl]phenyl]pyrazol-4-yl]-2-[2-(2,2,2-trifluoroethylamino)-4-pyridyl]oxazole-4-carboxamide] | A (>50% degradation)
7 | NC(=O)c1nn(-c2ccc(C(=O)NCCOCCCCCOCCNC(=O)COc3cccc4c3C(=O)N(C3CCC(=O)NC3=O)C4=O)cc2)cc1NC(=O)c1coc(-c2ccnc(NCC(F)(F)F)c2)n1 (stereo not drawn) [I-116, N-(3-carbamoyl-1-(4-((2-((5-(2-(2-((2-(2,6-dioxopiperidin-3-yl)-1,3-dioxoisoindolin-4-yl)oxy)acetamido)ethoxy)pentyl)oxy)ethyl)carbamoyl)phenyl)-1H-pyrazol-4-yl)-2-(2-((2,2,2-trifluoroethyl)amino)pyridin-4-yl)oxazole-4-carboxamide] | A (>50% degradation)
8 | NC(=O)c1nn(-c2ccc(C(=O)NCCCCCCCCCCCNc3cccc4c3C(=O)N(C3CCC(=O)NC3=O)C4=O)cc2)cc1NC(=O)c1coc(-c2ccnc(NCC(F)(F)F)c2)n1 (stereo not drawn) [I-133] | B (>20-50% degradation)
9 | NC(=O)c1nn(C2CN(C(=O)COCCOCCOCCOCCNc3cccc4c3C(=O)N(C3CCC(=O)NC3=O)C4=O)C2)cc1NC(=O)c1coc(-c2ccnc(NCC(F)(F)F)c2)n1 (stereo not drawn) [I-157] | C (<20% degradation)
10 | NC(=O)c1nn(-c2ccc(C(=O)NCCOCCOCCOCCOCCNc3cccc4c3C(=O)N(C3CCC(=O)NC3=O)C4=O)cc2)cc1NC(=O)c1coc(-c2ccnc(NCC(F)(F)F)c2)n1 (stereo not drawn) [I-53] | A (>50% degradation)
11 | NC(=O)c1nn(-c2ccc(C(=O)NCCOCCNc3cccc4c3C(=O)N(C3CCC(=O)NC3=O)C4=O)cc2)cc1NC(=O)c1coc(-c2ccnc(NCC(F)(F)F)c2)n1 (stereo not drawn) [I-130] | A (>50% degradation)
12 | NC(=O)c1nn(C2CN(C(=O)COCCOCCOCCNc3cccc4c3C(=O)N(C3CCC(=O)NC3=O)C4=O)C2)cc1NC(=O)c1coc(-c2ccnc(NCC(F)(F)F)c2)n1 (stereo not drawn) [I-158] | C (<20% degradation)
13 | O=C1CCC(N2C(=O)c3cccc(NCCOCCOCCNCc4cccc(-n5cc(NC(=O)c6coc(-c7ccnc(NCC8CC8)c7)n6)c(C(F)(F)F)n5)c4)c3C2=O)C(=O)N1 (stereo not drawn) [I-186, 2-[2-(Cyclopropylmethylamino)-4-pyridyl]-N-[1-[3-[[2-[2-[2-[[2-(2,6-dioxo-3-piperidyl)-1,3-dioxo-isoindolin-4-yl]amino]ethoxy]ethoxy]ethylamino]methyl]phenyl]-3-(trifluoromethyl)pyrazol-4-yl]oxazole-4-carboxamide] | C (<20% degradation)
14 | NC(=O)c1nn(-c2ccc(C(=O)NCCCn3cc(CNc4cccc5c4C(=O)N(C4CCC(=O)NC4=O)C5=O)nn3)cc2)cc1NC(=O)c1coc(-c2ccnc(NCC(F)(F)F)c2)n1 (stereo not drawn) [I-183, N-[3-carbamoyl-1-[4-[3-[4-[[[2-(2,6-dioxo-3-piperidyl)-1,3-dioxo-isoindolin-4-yl]amino]methyl]triazol-1-yl]propylcarbamoyl]phenyl]pyrazol-4-yl]-2-[2-(2,2,2-trifluoroethylamino)-4-pyridyl]oxazole-4-carboxamide] | B (>20-50% degradation)
15 | NC(=O)c1nn(-c2ccc(C(=O)NCCOCCOCCOCCNC(=O)COc3cccc4c3C(=O)N(C3CCC(=O)NC3=O)C4=O)cc2)cc1NC(=O)c1coc(-c2ccnc(NCC(F)(F)F)c2)n1 (stereo not drawn) [I-108] | C (<20% degradation)
16 | NC(=O)c1nn(C2CCN(C(=O)COCCOCCNc3cccc4c3C(=O)N(C3CCC(=O)NC3=O)C4=O)CC2)cc1NC(=O)c1coc(-c2ccnc(NCC(F)(F)F)c2)n1 (stereo not drawn) [I-154] | B (>20-50% degradation)
17 | NC(=O)c1nn(-c2ccc(CNCCOCCOCCNc3cccc4c3C(=O)N(C3CCC(=O)NC3=O)C4=O)cc2)cc1NC(=O)c1coc(-c2ccnc(NCC(F)(F)F)c2)n1 (stereo not drawn) [I-171, N-[3-carbamoyl-1-[4-[[2-[2-[2-[[2-(2,6-dioxo-3-piperidyl)-1,3-dioxo-isoindolin-4-yl]amino]ethoxy]ethoxy]ethylamino]methyl]phenyl]pyrazol-4-yl]-2-[2-(2,2,2-trifluoroethylamino)-4-pyridyl]oxazole-4-carboxamide] | A (>50% degradation)
18 | NC(=O)c1nn(-c2ccc(C(=O)NCCOCCNC(=O)COc3cccc4c3C(=O)N(C3CCC(=O)NC3=O)C4=O)cc2)cc1NC(=O)c1coc(-c2ccnc(NCC(F)(F)F)c2)n1 (stereo not drawn) [I-110] | A (>50% degradation)
19 | NC(=O)c1nn(-c2ccc(C(=O)NCCCCCNC(=O)COc3cccc4c3C(=O)N(C3CCC(=O)NC3=O)C4=O)cc2)cc1NC(=O)c1coc(-c2ccnc(NCC(F)(F)F)c2)n1 (stereo not drawn) [I-106, N-[3-carbamoyl-1-[4-[5-[[2-[2-(2,6-dioxo-3-piperidyl)-1,3-dioxo-isoindolin-4-yl]oxyacetyl]amino]pentylcarbamoyl]phenyl]pyrazol-4-yl]-2-[2-(2,2,2-trifluoroethylamino)-4-pyridyl]oxazole-4-carboxamide] | A (>50% degradation)
20 | NC(=O)c1nn(-c2ccc(C(=O)NCc3cn(CCCNc4cccc5c4C(=O)N(C4CCC(=O)NC4=O)C5=O)nn3)cc2)cc1NC(=O)c1coc(-c2ccnc(NCC(F)(F)F)c2)n1 (stereo not drawn) [I-180, N-[3-carbamoyl-1-[4-[[1-[3-[[2-(2,6-dioxo-3-piperidyl)-1,3-dioxo-isoindolin-4-yl]amino]propyl]triazol-4-yl]methylcarbamoyl]phenyl]pyrazol-4-yl]-2-[2-(2,2,2-trifluoroethylamino)-4-pyridyl]oxazole-4-carboxamide] | A (>50% degradation)
21 | NC(=O)c1nn(-c2ccc(C(=O)NCCOCCOCCOCCNc3cccc4c3C(=O)N(C3CCC(=O)NC3=O)C4=O)cc2)cc1NC(=O)c1coc(-c2ccnc(NCC(F)(F)F)c2)n1 (stereo not drawn) [I-128] | A (>50% degradation)
